Data reported in US20240148821A1, “PHARMACEUTICAL USE OF CYCLIC PEPTIDE COMPOUND” (CHUGAI SEIYAKU KABUSHIKI KAISHA, priority 2021, published 2024).
pIC50: −log10 of the molar value. Numbered stars: 1 amine (or outer) side, 2 acyl side, 3 side chain; on linkers, the order of the positions; unused ones are H or OH. Bridge positions count the residues as written; N and C are the ends. Square brackets hold non-standard residues; d marks the D form. Peptide text beside a SMILES is read from it. * marks the point of attachment. hPhe(3,5-F2-4-CF3) = N[C@@H](CCc1cc(F)c(C(F)(F)F)c(F)c1)C(=O)O; hPhe(3-Cl-4-CF3) = N[C@@H](CCc1ccc(C(F)(F)F)c(Cl)c1)C(=O)O; hPhe(3-F,4-CF3) = N[C@@H](CCc1ccc(C(F)(F)F)c(F)c1)C(=O)O; X19 = O=C([C@@H]1C[C@@H](N2CCC(F)(F)CC2)CN1[*:1])[*:2]; NEtPhe(4-CF3) = CCN[C@@H](Cc1ccc(C(F)(F)F)cc1)C(=O)O; NMePhe(4-CF3) = CN[C@@H](Cc1ccc(C(F)(F)F)cc1)C(=O)O; NEtPhe(4-Cl) = CCN[C@@H](Cc1ccc(Cl)cc1)C(=O)O; NEtPhe(4-Me) = CCN[C@@H](Cc1ccc(C)cc1)C(=O)O; NMedβ3hAla = C[C@H](CC(=O)[*:2])N(C)[*:1]; NMeGly(cPent) = CN[C@H](C(=O)O)C1CCCC1; NMeAla(cPr) = CN[C@@H](CC1CC1)C(=O)O; NMe3Pal = CN[C@@H](Cc1cccnc1)C(=O)O; NMeCha = CN[C@@H](CC1CCCCC1)C(=O)O; cisHyp = O=C(O)[C@@H]1C[C@H](O)CN1; NMeChg = CN[C@H](C(=O)O)C1CCCCC1; NMeI = CC[C@H](C)[C@H](NC)C(=O)O; NMeD = CN[C@@H](CC(=O)O)C(=O)O; NMeL = CN[C@@H](CC(C)C)C(=O)O; NMeV = CN[C@H](C(=O)O)C(C)C; d(β3hA) = C[C@@H](N)CC(=O)O; Azetidin(1-yl) = C1CN(*)C1; NMeS = CN[C@@H](CO)C(=O)O; Morpholide = C1CN(*)CCO1; NMeA = CN[C@@H](C)C(=O)O; NMeAib = CNC(C)(C)C(=O)O; Nle = CCCC[C@H](N)C(=O)O; Piperidide = C1CCN(*)CC1; Pyrrolidide = C1CCN(*)C1; dNMeA = CN[C@H](C)C(=O)O; Ac5c = NC1(C(=O)O)CCCC1; Aze = O=C(O)[C@@H]1CCN1; NEtG = CCNCC(=O)O; Sar = CNCC(=O)O

Key:
[1] = molecular target: protein-protein interaction between Kras and SOS1 (biotin-tagged human Kras loaded with GDP, His-tagged human SOS1) (Homo sapiens (Human), UniProt P01116, G12D); experiment: Protein-protein interaction inhibition between Kras and SOS1 (KrasG12D-SOS PPI) using AlphaScreen; format: biochemical; conditions: AlphaScreen; biotin-tagged human Kras loaded with GDP, His-tagged human SOS1; read-out: KRAS G12D-SOS PPI IC50;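 also: kras produced in E. coli, Ni-coupled donor beads and streptavidin acceptor beads, excitation 680 nm with emission detected at 520–620 nm via singlet oxygen transfer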
[2] = tested on: Human pancreatic cancer cell line AsPC-1 (G12D mutation Kras); experiment: AsPC-1 cell growth inhibition (AsPC-1 CGI); format: cell-based; conditions: read-out: AsPC-1 cell growth inhibition, 50% growth inhibitory concentration (IC50 value); 96 hours, CellTiter-Glo, values classified in ranges

| SMILES | pIC50 [1] | pIC50 [2] |
| --- | --- | --- |
| CC[C@H](C)[C@@H]1NC(=O)[C@H](CC(C)C)N(C)C(=O)C[C@@H](C(=O)N2CCOCC2)N(C)C(=O)[C@H]([C@@H](C)CC)N(C)C(=O)C2(CCCC2)NC(=O)[C@@H]2CCCN2C(=O)[C@H](CCc2cc(F)c(C(F)(F)F)c(F)c2)NC(=O)CN(C)C(=O)[C@H](Cc2ccc(C(F)(F)F)cc2)N(CC)C(=O)[C@@H]2CCN2C(=O)[C@H](C)N(C)C1=O [Compound 1364] ([NMeL]I[NMeA][Aze][NEtPhe(4-CF3)][Sar][hPhe(3,5-F2-4-CF3)]P[Ac5c][NMeI][NMeD]-Morpholide; lactam N-11) | 8.92 | ≥ 7.70 |
| CC[C@H](C)[C@@H]1NC(=O)[C@H](CC(C)C)N(C)C(=O)C[C@@H](C)NC(=O)[C@H](CC(C)C)N(C)C(=O)C2(CCCC2)NC(=O)[C@@H]2C[C@H](O)CN2C(=O)[C@H](CCc2ccc(C(F)(F)F)c(F)c2)NC(=O)CN(C)C(=O)[C@H](CC2CCCCC2)N(C)C(=O)CN(C)C(=O)CN(C)C1=O [Compound 1529] (cyclo([Ac5c][NMeL][d(β3hA)][NMeL]I[Sar][Sar][NMeCha][Sar][hPhe(3-F,4-CF3)][cisHyp])) | 7.96 | < 6.30 |
| CC[C@H](C)[C@@H]1NC(=O)[C@H](C)N(C)C(=O)C[C@@H](C)NC(=O)[C@H](C(C)C)N(C)C(=O)C2(CCCC2)NC(=O)[C@@H]2CCCN2C(=O)[C@H](CCc2ccc(C(F)(F)F)c(Cl)c2)NC(=O)CN(C)C(=O)[C@H](CC2CCCCC2)N(C)C(=O)[C@@H]2CCCN2C(=O)CN(C)C1=O [Compound 1056] (cyclo([Ac5c][NMeV][d(β3hA)][NMeA]I[Sar]P[NMeCha][Sar][hPhe(3-Cl-4-CF3)]P)) | 7.74 | < 6.30 |
| CC[C@H](C)[C@@H]1NC(=O)[C@H](CC(C)C)N(C)C(=O)C[C@@H](C(=O)N2CCCCC2)N(C)C(=O)[C@H](COC)N(C)C(=O)C2(CCCC2)NC(=O)[C@@H]2CCCN2C(=O)[C@H](CCc2ccc(C(F)(F)F)c(Cl)c2)NC(=O)CN(C)C(=O)[C@H](CC2CCCCC2)N(C)C(=O)[C@@H]2CCN2C(=O)[C@H](C)N(C)C1=O [Compound 484] ([NMeL]I[NMeA][Aze][NMeCha][Sar][hPhe(3-Cl-4-CF3)]P[Ac5c][NMeS](Me)[NMeD]-Piperidide; lactam N-11) | 6.96 | < 6.30 |
| CC[C@H](C)[C@@H]1NC(=O)[C@H](CC(C)C)N(C)C(=O)C[C@@H](C)N(C)C(=O)[C@H](CC(C)C)NC(=O)C(C)(C)N(C)C(=O)[C@H](CC(C)C)NC(=O)[C@H](CCc2ccc(C(F)(F)F)c(F)c2)NC(=O)CN(C)C(=O)[C@H](CC2CCCCC2)N(C)C(=O)CN(C)C(=O)CN(C)C1=O [Compound 883] (cyclo(I[Sar][Sar][NMeCha][Sar][hPhe(3-F,4-CF3)]L[NMeAib]L[NMedβ3hAla][NMeL])) | 7.31 | < 6.30 |
| CC[C@H](C)[C@@H]1NC(=O)[C@H](CC(C)C)N(C)C(=O)C[C@@H](C(=O)N(C)C)N(C)C(=O)[C@H](C2CCCC2)N(C)C(=O)C2(CCCC2)NC(=O)[C@@H]2CCCN2C(=O)[C@H](CCc2cc(F)c(C(F)(F)F)c(F)c2)NC(=O)CN(C)C(=O)[C@H](CC2CCCCC2)N(C)C(=O)[C@@H]2CCN2C(=O)[C@H](C)N(C)C1=O [Compound 1170] ([NMeL]I[NMeA][Aze][NMeCha][Sar][hPhe(3,5-F2-4-CF3)]P[Ac5c][NMeGly(cPent)][NMeD]-NMe2; lactam N-11) | 9.27 | ≥ 7.70 |
| CC[C@H](C)[C@@H]1NC(=O)[C@H](C)N(C)C(=O)C[C@@H](C(=O)N2CCCC2)N(C)C(=O)[C@H](C(C)C)N(C)C(=O)C2(CCCC2)NC(=O)[C@@H]2CCCN2C(=O)[C@H](CCc2ccc(C(F)(F)F)c(Cl)c2)NC(=O)[C@@H](C)N(C)C(=O)[C@H](CC2CCCCC2)N(C)C(=O)[C@@H]2CCN2C(=O)[C@H](C)N(C)C1=O [Compound 1827] ([NMeA]I[NMeA][Aze][NMeCha][dNMeA][hPhe(3-Cl-4-CF3)]P[Ac5c][NMeV][NMeD]-Pyrrolidide; lactam N-11) | 8.18 | < 6.30 |
| CC[C@H](C)[C@@H]1NC(=O)[C@H](CC(C)C)N(C)C(=O)C[C@@H](C(=O)N2CCC2)N(C)C(=O)[C@H](C2CCCC2)N(C)C(=O)C2(CCCC2)NC(=O)[C@@H]2CCCN2C(=O)[C@H](CCc2cc(F)c(C(F)(F)F)c(F)c2)NC(=O)CN(C)C(=O)[C@H](CC2CCCCC2)N(C)C(=O)[C@@H]2CCN2C(=O)[C@H](C)N(C)C1=O [Compound 1070] ([NMeL]I[NMeA][Aze][NMeCha][Sar][hPhe(3,5-F2-4-CF3)]P[Ac5c][NMeGly(cPent)][NMeD]-{Azetidin(1-yl)}; lactam N-11) | 9.04 | ≥ 7.70 |
| CC[C@H](C)[C@@H]1NC(=O)[C@H](CC(C)C)N(C)C(=O)C[C@@H](C)NC(=O)[C@H](C2CCCCC2)N(C)C(=O)C2(CCCC2)NC(=O)[C@@H]2CCCN2C(=O)[C@H](CCc2ccc(C(F)(F)F)c(Cl)c2)NC(=O)CN(C)C(=O)[C@H](CC2CCCCC2)N(C)C(=O)[C@@H]2CCN2C(=O)[C@H](C)N(C)C1=O [Compound 1706] (cyclo([Ac5c][NMeChg][d(β3hA)][NMeL]I[NMeA][Aze][NMeCha][Sar][hPhe(3-Cl-4-CF3)]P)) | 6.85 | < 6.30 |
| CCCC[C@@H]1NC(=O)[C@H](CCc2ccc(C(F)(F)F)c(F)c2)NC(=O)CN(C)C(=O)[C@H](Cc2ccc(Cl)cc2)N(CC)C(=O)CN(C)C(=O)CN(C)C(=O)[C@H]([C@@H](C)CC)NC(=O)[C@H](CC(C)C)N(C)C(=O)C[C@@H](C)N(C)C(=O)[C@H](CC(C)C)NC(=O)C(C)(C)N(C)C1=O [Compound 257] (cyclo(I[Sar][Sar][NEtPhe(4-Cl)][Sar][hPhe(3-F,4-CF3)][Nle][NMeAib]L[NMedβ3hAla][NMeL])) | 7.01 | < 6.30 |
| CC[C@H](C)[C@@H]1NC(=O)[C@H](CC(C)C)N(C)C(=O)C[C@@H](C(=O)N2CCOCC2)N(C)C(=O)[C@H]([C@@H](C)CC)N(C)C(=O)C2(CCCC2)NC(=O)[C@@H]2CCCN2C(=O)[C@H](CCc2cc(F)c(C(F)(F)F)c(F)c2)NC(=O)CN(C)C(=O)[C@H](Cc2ccc(C(F)(F)F)cc2)N(C)C(=O)[C@@H]2CCN2C(=O)[C@H](C)N(C)C1=O [Compound 1362] ([NMeL]I[NMeA][Aze][NMePhe(4-CF3)][Sar][hPhe(3,5-F2-4-CF3)]P[Ac5c][NMeI][NMeD]-Morpholide; lactam N-11) | 9.09 | ≥ 7.70 |
| CC[C@H](C)[C@@H]1NC(=O)[C@H](C)N(C)C(=O)C[C@@H](C(=O)N2CCOCC2)N(C)C(=O)[C@H](C2CCCCC2)N(C)C(=O)C2(CCCC2)NC(=O)[C@H](Cc2cccnc2)N(C)C(=O)[C@H](CCc2ccc(C(F)(F)F)c(Cl)c2)NC(=O)CN(C)C(=O)[C@H](CC2CCCCC2)N(C)C(=O)CN(C)C(=O)CN(C)C1=O [Compound 1718] ([NMeA]I[Sar][Sar][NMeCha][Sar][hPhe(3-Cl-4-CF3)][NMe3Pal][Ac5c][NMeChg][NMeD]-Morpholide; lactam N-11) | 9.10 | < 6.30 |
| CC[C@H](C)[C@@H]1NC(=O)[C@H](CC(C)C)N(C)C(=O)C[C@@H](C(=O)N2CCOCC2)N(C)C(=O)[C@H](C2CCCC2)N(C)C(=O)C2(CCCC2)NC(=O)[C@@H]2CCCN2C(=O)[C@H](CCc2ccc(C(F)(F)F)c(Cl)c2)NC(=O)CN(CC)C(=O)[C@H](CC2CCCCC2)N(C)C(=O)[C@@H]2CCN2C(=O)[C@H](C)N(C)C1=O [Compound 1272] ([NMeL]I[NMeA][Aze][NMeCha][NEtG][hPhe(3-Cl-4-CF3)]P[Ac5c][NMeGly(cPent)][NMeD]-Morpholide; lactam N-11) | 8.70 | ≥ 7.70 |
| CC[C@H](C)[C@@H]1NC(=O)[C@H](C)N(C)C(=O)C[C@@H](C(=O)N2CCCCC2)N(C)C(=O)[C@H](C(C)C)N(C)C(=O)C2(CCCC2)NC(=O)[C@@H]2C[C@@H](N3CCC(F)(F)CC3)CN2C(=O)[C@H](CCc2ccc(C(F)(F)F)c(Cl)c2)NC(=O)CN(C)C(=O)[C@H](CC2CCCCC2)N(C)C(=O)CN(C)C(=O)CN(C)C1=O [Compound 914] ([NMeA]I[Sar][Sar][NMeCha][Sar][hPhe(3-Cl-4-CF3)][X19][Ac5c][NMeV][NMeD]-Piperidide; lactam N-11) | 8.96 | < 6.30 |
| CC[C@H](C)[C@@H]1NC(=O)[C@H](CC(C)C)N(C)C(=O)C[C@@H](C(=O)N2CCCCC2)N(C)C(=O)[C@H](C(C)C)N(C)C(=O)C2(CCCC2)NC(=O)[C@@H]2CCCN2C(=O)[C@H](CCc2ccc(C(F)(F)F)c(Cl)c2)NC(=O)CN(C)C(=O)[C@H](CC2CC2)N(C)C(=O)[C@@H]2CCN2C(=O)[C@H](C)N(C)C1=O [Compound 195] ([NMeL]I[NMeA][Aze][NMeAla(cPr)][Sar][hPhe(3-Cl-4-CF3)]P[Ac5c][NMeV][NMeD]-Piperidide; lactam N-11) | 8.02 | < 6.30 |
| CC[C@H](C)[C@@H]1NC(=O)[C@H](CC(C)C)N(C)C(=O)C[C@@H](C(=O)N2CCOCC2)N(C)C(=O)[C@H]([C@@H](C)CC)N(C)C(=O)C2(CCCC2)NC(=O)[C@@H]2CCCN2C(=O)[C@H](CCc2ccc(C(F)(F)F)c(Cl)c2)NC(=O)CN(C)C(=O)[C@H](Cc2ccc(C)cc2)N(CC)C(=O)[C@@H]2CCN2C(=O)[C@H](C)N(C)C1=O [Compound 1322] ([NMeL]I[NMeA][Aze][NEtPhe(4-Me)][Sar][hPhe(3-Cl-4-CF3)]P[Ac5c][NMeI][NMeD]-Morpholide; lactam N-11) | 9.09 | ≥ 7.70 |
